Results on 7 compounds are retold here after paper PMC10582583, “The novel cyclophilin inhibitor C105SR reduces hepatic ischaemia–reperfusion injury via mitoprotection” (JHEP Reports, 2023).

Assay [1] relates to AML-12 cells. Nature of the assay: LDH release, hypoxia/reoxygenation. It is filed as cell-based, mouse. The note with it: 0.5 μM. How it is done: As expected, cells subjected to hypoxia/reoxygenation were characterised by greater LDH release and reduced cell viability as compared to untreated controls (Fig. 4A and 4B). […]
Hypoxia/reoxygenation (H/R) in vitro model. AML-12 mouse hepatocyte line was obtained from American Type Culture Collection (ATCC) and maintained in DMEM/F12 culture medium at 37°C with 5% CO2. HepaRG human hepatocyte line was obtained from American Type Culture Collection (ATCC) and maintained in William’S E culture medium at 37°C with 5% CO2.When indicated, cells were incubated in phosphate buffered saline at 37°C in a hypoxic chamber filled with 94% N2, 1% O2, 5% CO2 for 4 h to mimic ischemic conditions. Then, cells were transferred to a CO2 incubator at 37°C in regular DMEM/F12 culture medium for 1 or 2 h under normoxic conditions (74% N2, 21% O2, 5% CO2). SMCypIs or vehicle (DMSO) were added during the hypoxia period, during the reoxygenation period, or during both. CsA and ALV were used as positive controls for hepatic protection against H/R injury. […]
Cell viability assays. Lactate dehydrogenase (LDH) release in culture medium was assessed using the commercially non-radioactive CytoTox-96 kit (Promega, Madison, Wisconsin) following the manufacturer’s instructions. Briefly, cell culture media were collected and the LDH activity was determined by measuring absorbance at 491 nm with a spectrometer (Multiskan skyHigh). For 3-(4,5-dimethylthiazol-2-yl)-2,5-diphenyltetrazolium bromide (MTT) assay, cells were incubated with a solution of MTT (0.5 mg/mL) for 2 h at 37°C. The medium was then removed and 50 µL DMSO was added to each well. Optical density of purple formazan product was measured at 550 nm. Cell viability was expressed as a percentage of the untreated control.

A further assay concerns the target CypD (Homo sapiens, UniProt P30405). Nature of the assay: CypD PPIase activity, chymotrypsin-coupled assay. Format: biochemical. The conditions noted are these: Table 1.
Assay [2] has as its system isolated mouse liver mitochondria. Nature of the assay: Calcium retention capacity (CRC) assay in isolated liver mitochondria. It is filed as biochemical. The note with it: for EC50: isolated mouse liver mitochondria; for maximal mitochondrial CRC, diastereoisomer vs racemic mixture: Fig. 2E; for maximal mitochondrial CRC: compound at 100 μM (Fig. 1C).
The test system is the same in assay [3]. Nature of the assay: Ca2+-induced mitochondrial swelling assay. Format: biochemical. The note with it: energised isolated mouse liver mitochondria.
The subject of assay [4] is AML-12 cells. In words: mPTP opening, CoCl2-calcein AM fluorescence-quenching assay, hypoxia/reoxygenation. It is filed as cell-based, mouse. The conditions noted are these: for prevention of mPTP opening (loss of calcein fluorescence): 1 μM, 4 h hypoxia, 1 h reoxygenation. How it is done: We next evaluated the ability of compounds C105SR and C110SR to inhibit mPTP opening in cells. The hepatocyte cell line AML-12 was subjected to 4 h of hypoxia followed by 1 h of reoxygenation and mPTP opening was monitored using the CoCl2-calcein-acetoxymethyl ester (AM) fluorescence-quenching method.[19] Calcein-AM is a membrane permeable fluorophore which passively diffuses in all subcellular compartments including mitochondria. In the cell, the AM group of the fluorophore is cleaved by ubiquitous intracellular esterases, generating a hydrophilic product that is retained within the cell. The cells are then loaded with the divalent cobalt cation (Co^2+), which quenches calcein fluorescence in all subcellular compartments except the mitochondrial matrix, because the inner mitochondrial membrane is impermeable to cobalt. However, when mPTP is open, cobalt enters mitochondria and quenches mitochondrial calcein fluorescence. […]
Hypoxia/reoxygenation (H/R) in vitro model. AML-12 mouse hepatocyte line was obtained from American Type Culture Collection (ATCC) and maintained in DMEM/F12 culture medium at 37°C with 5% CO2. HepaRG human hepatocyte line was obtained from American Type Culture Collection (ATCC) and maintained in William’S E culture medium at 37°C with 5% CO2.When indicated, cells were incubated in phosphate buffered saline at 37°C in a hypoxic chamber filled with 94% N2, 1% O2, 5% CO2 for 4 h to mimic ischemic conditions. Then, cells were transferred to a CO2 incubator at 37°C in regular DMEM/F12 culture medium for 1 or 2 h under normoxic conditions (74% N2, 21% O2, 5% CO2). SMCypIs or vehicle (DMSO) were added during the hypoxia period, during the reoxygenation period, or during both. CsA and ALV were used as positive controls for hepatic protection against H/R injury.
Monitoring of mPTP opening. mPTP opening was monitored in AML-12 cells using the CoCl2-calcein AM fluorescence-quenching assay. Cells were loaded with 1 µM calcein-AM (green) for 20 min. Then, 1 mM CoCl2 was added and cells were incubated for another 10 min. Cells were washed and subjected to 4 h of hypoxia followed by 1 h of reoxygenation. Calcein fluorescence was measured using a spectrofluorimeter at excitation and emission wavelengths of 485 nm and 535 nm, respectively. Images were acquired using a standard inverted fluorescence microscope (Zeiss Axio, […]
media during the entire H/R period. Images shown are representative images of 12-18 images. […]
Optical density of purple formazan product was measured at 550 nm. […]

The subject of assay [5] is AML-12 cells. Nature of the assay: Propidium iodide staining, hypoxia/reoxygenation. Format: cell-based, mouse. The conditions noted are these: 1 μM; 4 h hypoxia, 1 h reoxygenation. How it is done: To assess whether the new SMCypIs reduced mPTP opening-induced cell death, propidium iodide fluorescence was measured in cells that had been co-loaded with calcein-AM. As expected, the loss of calcein fluorescence in cells subjected to hypoxia/reoxygenation was associated with enhanced propidium iodide fluorescence (Fig. 3A and 3C).
Calcium retention capacity (CRC) assay. Isolated liver mitochondria (1 mg/mL) energized with 5 mM glutamate/malate were incubated in a buffer allowing respiration of mitochondria (100 mM KCl, 50 mM sucrose, 10 mM HEPES, 5 mM KH2PO4, pH 7.4 at 30°C) supplemented with 1 µM calcium green 5N fluorescent probe. Mitochondria were pulsed with sequential additions of CaCl2 (20 µM) until mPTP opening along with rapid calcium release happened. The calcium concentration in the extra-mitochondrial medium was monitored with a Jasco FP-6300 spectrofluorimeter (Jasco, Bouguenais, France) at 506 nm excitation and 532 nm emission wavelengths.
Mitochondrial swelling assay. Mitochondrial swelling was assessed by measuring changes in absorbance at 540 nm using a Jasco V-530 spectrophotometer (Bouguenais, France) equipped with magnetic stirring and thermostatic control (30°C). […]
Monitoring of mPTP opening. mPTP opening was monitored in AML-12 cells using the CoCl2-calcein AM fluorescence-quenching assay. […] Calcein fluorescence was measured using a spectrofluorimeter at excitation and emission wavelengths of 485 nm and 535 nm, respectively. Images were acquired using a standard inverted fluorescence microscope (Zeiss Axio, […]
Propidium iodide staining. […] Fluorescence was measured using an Infinite 200 Pro fluorescent plate reader (Tecan, Mannedorf, Switzerland) at excitation and emission wavelengths of 533 nm and 617 nm, respectively. Images were acquired using a standard inverted fluorescence microscope (Zeiss Axio, Oberkochen, Germany). […]
Cell viability assays. Lactate dehydrogenase (LDH) release in culture medium was assessed using the commercially non-radioactive CytoTox-96 kit (Promega, Madison, Wisconsin) following the manufacturer’s instructions. […]

Sequence of CypD (P30405 30-207): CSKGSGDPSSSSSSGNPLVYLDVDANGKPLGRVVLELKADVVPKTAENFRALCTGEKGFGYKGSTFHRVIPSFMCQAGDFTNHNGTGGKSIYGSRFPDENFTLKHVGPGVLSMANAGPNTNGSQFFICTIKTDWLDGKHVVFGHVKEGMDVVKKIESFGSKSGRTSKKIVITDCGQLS

On to `CSc1ccccc1C1CCCN1C(=O)C(NC(=O)NCc1ccc(N)cc1)c1ccccc1` (stereo not shown) [Compound C31], for which, in the assay on AML-12 cells [1], the “inhibition of cell death” value is “not effective”. For the same compound, the IC50 against CypD is 200 ± 100 nM; in assay [3], 1300 ± 50 nM. Moreover, the EC50 in assay [2] was found to be 9090 ± 210 nM. Also, the “inhibition of mPTP opening” value with AML-12 cells [4] (0.5 μM) is listed as “not effective”.

With `COc1ccc(Br)cc1C(NC(=O)NCc1ccc2c(c1)CCCN2)C(=O)N1CCCC1c1cccc2ccsc12` (stereo not shown) [Compound C105, 1-(2-(2-(benzo[b]thiophen-7-yl)pyrrolidin-1-yl)-1-(5-bromo-2-methoxyphenyl)-2-oxoethyl)-3-((1,2,3,4-tetrahydroquinolin-6-yl)methyl)urea], in assay [2], the “maximal mitochondrial CRC, diastereoisomer vs racemic mixture” value is recorded as 407 ± 13 nmol Ca2+/mg of mitochondrial and the EC50 came to 2370 ± 110 nM. Besides, the “maximal mitochondrial CRC” value in assay [2] (basal 160 ± 8) was 407 ± 13 nmol Ca2+/mg of mitochondrial. In assay [3], this compound registered an IC50 of 690 ± 50 nM. In addition, the “prevention of mPTP opening (loss of calcein fluorescence)” value in the assay with AML-12 cells [4] is recorded as “not”.

In the case of `CCNC(=O)N1CCCc2c(CNC(=O)NC(C(=O)N3CCCC3c3ccccc3SC)c3ccccc3)cccc21` (stereo not shown) [Compound C177, N-ethyl-5-((3-(2-(2-(2-(methylthio)phenyl)pyrrolidin-1-yl)-2-oxo-1-phenylethyl)ureido)methyl)-3,4-dihydroquinoline-1(2H)-carboxamide], 490 ± 320 nM corresponded to half-maximal inhibition against CypD (IC50).

Consider `C/C=C/C[C@@H](C)[C@@H](O)[C@H]1C(=O)N[C@@H](CC)C(=O)N(C)[C@H](C)C(=O)N(CC)[C@@H](C(C)C)C(=O)N[C@@H](C(C)C)C(=O)N(C)[C@@H](CC(C)C)C(=O)N[C@@H](C)C(=O)N[C@H](C)C(=O)N(C)[C@@H](CC(C)C)C(=O)N(C)[C@@H](CC(C)C)C(=O)N(C)[C@@H](C(C)C)C(=O)N1C` [ALV, alisporivir, reference compound], for which the results for the concentration for half-maximal inhibition (IC50) (on CypD; in assay [3]) were 30 ± 5 nM and 50 ± 20 nM, respectively. In assay [2] (compound at 1 μM, basal 160 ± 8), the “amount of Ca2+ required to open mPTP (CRC)” value was 373 ± 59 nmol Ca2+/mg of mitochondrial. Further, the EC50 in assay [2] was 80 ± 20 nM. Besides, the propidium iodide fluorescence entry with AML-12 cells [5] was “low propidium iodide fluorescence”. In addition, the “prevention of mPTP opening (loss of calcein fluorescence)” value with AML-12 cells [4] is recorded as “substantially prevented”.

As for `CSc1ccccc1C1CCCN1C(=O)C(NC(=O)NCc1cccc2c1CCN2)c1ccccc1` (stereo not shown) [Compound C144, 1-(indolin-4-ylmethyl)-3-(2-(2-(2-(methylthio)phenyl)pyrrolidin-1-yl)-2-oxo-1-phenylethyl)urea], the IC50 was 310 ± 160 nM against CypD and 11570 ± 10 nM in assay [3]. For the same compound, the “maximal mitochondrial CRC” value in assay [2] (basal 160 ± 8) is on record as 422 ± 44 nmol Ca2+/mg of mitochondrial. Moreover, in assay [2], the EC50 is 11760 ± 10 nM.

At CypD, `COc1ccc(OC)c(C(NC(=O)NCc2ccc(N)cc2)C(=O)N2CCCC2c2cccc3ccsc23)c1` (stereo not shown) [Compound C108, 1-(4-aminobenzyl)-3-(2-(2-(benzo[b]thiophen-7-yl)pyrrolidin-1-yl)-1-(2,5-dimethoxyphenyl)-2-oxoethyl)urea] gave a half-maximal inhibitory concentration (IC50) of 480 ± 230 nM.

For `COc1ccc(Br)cc1C(NC(=O)NCc1ccc(N)cc1)C(=O)N1CCCC1c1cccc2ccsc12` (stereo not shown) [Compound C110, 1-(4-aminobenzyl)-3-(2-(2-(benzo[b]thiophen-7-yl)pyrrolidin-1-yl)-1-(5-bromo-2-methoxyphenyl)-2-oxoethyl)urea], the 50% inhibitory concentration (IC50) at CypD was found to be 100 ± 20 nM. In assay [2], the “maximal mitochondrial CRC, diastereoisomer vs racemic mixture” value was 400 ± 27 nmol Ca2+/mg of mitochondrial and the EC50 was 2830 ± 90 nM. In assay [2] (basal 160 ± 8), the “maximal mitochondrial CRC” value is 400 ± 27 nmol Ca2+/mg of mitochondrial. For the same compound, in assay [3], the concentration for half-maximal inhibition (IC50) is 370 ± 6 nM. Also, in the assay on AML-12 cells [4], the “prevention of mPTP opening (loss of calcein fluorescence)” value is “not”.
